Source: ChEMBL document CHEMBL1130480, “Structure-activity relationship of cantharidin derivatives to protein phosphatases 1, 2A1, and 2B” (Bioorg Med Chem Lett, 1997)

What was measured:
Oryctolagus cuniculus [1] = organism: Oryctolagus cuniculus; assay: Inhibition of Protein phosphatase 1 at 0.1 mM
Oryctolagus cuniculus [2] = organism: Oryctolagus cuniculus; assay: Inhibition of Protein phosphatase 1 at 1 mM
Oryctolagus cuniculus [3] = organism: Oryctolagus cuniculus; assay: Inhibition of Protein phosphatase 2A1 (PP2A1) at 0.1 mM
Oryctolagus cuniculus [4] = organism: Oryctolagus cuniculus; assay: Inhibition of Protein phosphatase 2A1 (PP2A1) at 1 mM
Bos taurus [5] = organism: Bos taurus; assay: Inhibition of Protein phosphatase 2B (PP2B) at 0.1 mM
Bos taurus [6] = organism: Bos taurus; assay: Inhibition of Protein phosphatase 2B (PP2B) at 1 mM

In the case of CC(=O)OCC12CCC(O1)C1C(=O)OC(=O)C12 (centres undefined), the inhibition (Oryctolagus cuniculus [1]) is reported as 20%, the inhibition (Oryctolagus cuniculus [2]) is reported as 70% and the inhibition (Oryctolagus cuniculus [3]) is reported as 5%. For the same compound, the inhibition (Oryctolagus cuniculus [4]) was 50%, the inhibition (Bos taurus [5]) was 30% and the inhibition (Bos taurus [6]) was 45%.
With O=C(O)C1C2CCC3(COC(=O)C13)O2 (centres undefined) the inhibition (Oryctolagus cuniculus [1]) was 9%, the inhibition (Oryctolagus cuniculus [2]) was 20% and the inhibition (Oryctolagus cuniculus [3]) was 8%. For the same compound, the inhibition (Oryctolagus cuniculus [4]) was 8%, the inhibition (Bos taurus [5]) was 18% and the inhibition (Bos taurus [6]) was 20%.
For CC(=O)OCC12C=CC(O1)C1C(=O)OC(=O)C12 (centres undefined), the inhibition (Oryctolagus cuniculus [1]) was 5%, the inhibition (Oryctolagus cuniculus [2]) was 30% and the inhibition (Oryctolagus cuniculus [3]) was 5%. For the same compound, the inhibition (Oryctolagus cuniculus [4]) was 40%, the inhibition (Bos taurus [5]) was 10% and the inhibition (Bos taurus [6]) was 50%.
For O=C1OC(=O)C2C3OC(C=C3COC3CCCCC3)C12 (centres undefined), the inhibition (Oryctolagus cuniculus [1]) was 50%, the inhibition (Oryctolagus cuniculus [2]) was 60% and the inhibition (Oryctolagus cuniculus [3]) was 80%. For the same compound, the inhibition (Oryctolagus cuniculus [4]) was 100%, the inhibition (Bos taurus [5]) was 30% and the inhibition (Bos taurus [6]) was 70%.
CC(=O)OCC12C=CC(O1)C(C(=O)O)C2C(=O)O (centres undefined) showed an inhibition (Oryctolagus cuniculus [1]) of 5%, an inhibition (Oryctolagus cuniculus [2]) of 40% and an inhibition (Oryctolagus cuniculus [3]) of 0%. For the same compound, the inhibition (Oryctolagus cuniculus [4]) was 25%, the inhibition (Bos taurus [5]) was 10% and the inhibition (Bos taurus [6]) was 60%.
With CC(=O)OCC1=CC2OC1C1C(=O)OC(=O)C21 (centres undefined) the inhibition (Oryctolagus cuniculus [1]) was 59%, the inhibition (Oryctolagus cuniculus [2]) was 92% and the inhibition (Oryctolagus cuniculus [3]) was 60%. For the same compound, the inhibition (Oryctolagus cuniculus [4]) was 98%, the inhibition (Bos taurus [5]) was 25% and the inhibition (Bos taurus [6]) was 90%.
Compound O=C1OC(=O)C2C3C=CC(O3)C12 (centres undefined) has an inhibition (Oryctolagus cuniculus [1]) of 95%, an inhibition (Oryctolagus cuniculus [2]) of 98% and an inhibition (Oryctolagus cuniculus [3]) of 95%. It also gave an inhibition (Oryctolagus cuniculus [4]) of 95%, an inhibition (Bos taurus [5]) of 40% and an inhibition (Bos taurus [6]) of 99%.
Compound O=C1OC(=O)C2C3OC(CC3COC3CCCCC3)C12 (centres undefined) has an inhibition (Oryctolagus cuniculus [1]) of 70%, an inhibition (Oryctolagus cuniculus [2]) of 90% and an inhibition (Oryctolagus cuniculus [3]) of 75%. For the same compound, the inhibition (Oryctolagus cuniculus [4]) was 100%, the inhibition (Bos taurus [5]) was 40% and the inhibition (Bos taurus [6]) was 100%.
Compound CC(=O)OCC1CC2OC1C1C(=O)OC(=O)C21 (centres undefined) has an inhibition (Oryctolagus cuniculus [1]) of 90%, an inhibition (Oryctolagus cuniculus [2]) of 100% and an inhibition (Oryctolagus cuniculus [3]) of 70%. For the same compound, the inhibition (Oryctolagus cuniculus [4]) was 98%, the inhibition (Bos taurus [5]) was 20% and the inhibition (Bos taurus [6]) was 85%.
C[C@@]12C(=O)OC(=O)[C@]1(C)C1CCC2O1 showed an inhibition (Oryctolagus cuniculus [1]) of 85%, an inhibition (Oryctolagus cuniculus [2]) of 90% and an inhibition (Oryctolagus cuniculus [3]) of 85%. It also gave an inhibition (Oryctolagus cuniculus [4]) of 98%, an inhibition (Bos taurus [5]) of 15% and an inhibition (Bos taurus [6]) of 38%.
With O=C1OC(=O)C2C3CCC(O3)C12 (centres undefined) the inhibition (Oryctolagus cuniculus [1]) was 95%, the inhibition (Oryctolagus cuniculus [2]) was 100% and the inhibition (Oryctolagus cuniculus [3]) was 94%. It also gave an inhibition (Oryctolagus cuniculus [4]) of 100%, an inhibition (Bos taurus [5]) of 35% and an inhibition (Bos taurus [6]) of 98%.
CC12CCC(C)(O1)C(C(=O)O)C2C(=O)O (centres undefined) showed an inhibition (Oryctolagus cuniculus [1]) of 0%, an inhibition (Oryctolagus cuniculus [2]) of 1% and an inhibition (Oryctolagus cuniculus [3]) of 0%. It also gave an inhibition (Oryctolagus cuniculus [4]) of 2%, an inhibition (Bos taurus [5]) of 17% and an inhibition (Bos taurus [6]) of 18%.
With O=C1OC(=O)C2C1C1C=CC2(CO)O1 (centres undefined) the inhibition (Oryctolagus cuniculus [1]) was 8%, the inhibition (Oryctolagus cuniculus [2]) was 18% and the inhibition (Oryctolagus cuniculus [3]) was 5%. It also gave an inhibition (Oryctolagus cuniculus [4]) of 12%, an inhibition (Bos taurus [5]) of 10% and an inhibition (Bos taurus [6]) of 50%.
For CC(=O)OCC1=CC2OC1C(C(=O)O)C2C(=O)O (centres undefined), the inhibition (Oryctolagus cuniculus [1]) was 50%, the inhibition (Oryctolagus cuniculus [2]) was 80% and the inhibition (Oryctolagus cuniculus [3]) was 40%. For the same compound, the inhibition (Oryctolagus cuniculus [4]) was 90%, the inhibition (Bos taurus [5]) was 20% and the inhibition (Bos taurus [6]) was 89%.
